# Assay results published in patent US20170327598A1, “SINGLE DOMAIN ANTIBODIES DIRECTED AGAINST INTRACELLULAR ANTIGENS” (SINGH MOLECULAR MEDICINE, LLC, priority 2014, published 2017).
# Values joined by “and” are separate entries in the source; they are usually repeats but may differ in a detail not shown here. Equal values may be shown once.
# How the values were obtained:
# [1] = test system: VEGF-A production in ARPE-19 cells; test: VEGF-A ELISA in ARPE-19 retinal cells, Experiment 2;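 for all read-outs here: confluent ARPE-19 cells in 96-well plates, VEGF-A in culture supernatant quantified by ELISA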; type: cell-based, human; conditions: for pg VEGF-A per mL: based on collecting 0.1 ml of supernatant; for Mean (pg VEGF-A per mL): mean of Adj. Result, Wells 1-3; for Mean (pg VEGF-A per μg protein): mean of Wells 1-3; for Mean (pg VEGF-A per μg protein) / % Control: Experiment 2; for % Control: normalized for protein; for Mean Result (pg VEGF-A per mL) / pg VEGF-A per μg protein / Adj. Result (pg VEGF-A per mL): per well; for Adj. Result (pg VEGF-A per mL): adjusted for dilution; for Result (pg VEGF-A per mL): single reads
# [2] = test system: rabbit anti-llama biotinylated antibody or his-probe (H-3) biotin labeled antibody; test: ELISA with sdAbs coated, binding of secondary antibodies (Experiments 2 and 3)
# Description: Two assays (Experiment 2 and 3) were performed to assess the binding of the secondary antibody to the sdAbs. A similar ELISA method was utilized except the sdAbs were directly coated onto the assay plate at a concentration of 1 μg/mL. Plates were incubated overnight at 2-8° C. After the incubation, plates were washed (3×) and blocked (3% BSA in PBS) for at least one hour at room temperature.
# After removal of the blocking buffer and washing (3×), the secondary antibodies, either rabbit anti-llama biotinylated antibody or his-probe (H-3) biotin labeled antibody at was then added at a 1:5,000 dilution to each well and incubated with shaking for at least one hour at room temperature. Only the rabbit anti-llama biotinylated antibody was used in Experiment 2. Both antibodies were run in parallel in Experiment 3.
# After the incubation with secondary antibody, the plates were again washed (3×) and HRP at a 1:50,000 dilution was added to each well. Plates were incubated with shaking for at least one hour at room temperature. One last wash (3×) was performed followed by the addition of TMB substrate and plates were incubated at room temperature. For the anti-llama biotinylated antibody stop solution was added to halt the colorimetric reaction at 10 minutes. The his-probe (H-3) biotin labeled antibody was allowed to incubate for 20 minutes prior to stopping. The absorbance at 450 nm was measured as before.
substance,measurement,setting,value
"Anti-STAT3 VHH13: anti-STAT3 single domain antibody, SEQ ID NO:3; bacterially produced form referred to as SBT-100",pg VEGF-A per mL,"[1]; 10 μg/well, 12 Hr",15.2 pg VEGF-A per mL and 12.2 pg VEGF-A per mL and 14.3 pg VEGF-A per mL
same,Mean (pg VEGF-A per mL),"[1]; 10 μg/well, 12 Hr",139.00 pg VEGF-A per mL
same,Mean (pg VEGF-A per μg protein),"[1]; 10 μg/well, 12 Hr",2.148 pg VEGF-A per μg protein
same,% Control,"[1]; 10 μg/well, 12 Hr",113.7%
same,Mean Result (pg VEGF-A per mL),"[1]; 10 μg/well, 12 Hr",30.43 pg VEGF-A per mL and 24.41 pg VEGF-A per mL and 28.58 pg VEGF-A per mL
same,pg VEGF-A per μg protein,"[1]; 10 μg/well, 12 Hr",2.5 pg VEGF-A per μg protein and 1.9 pg VEGF-A per μg protein and 2 pg VEGF-A per μg protein
same,Adj. Result (pg VEGF-A per mL),"[1]; 10 μg/well, 12 Hr",152.14 pg VEGF-A per mL and 122.07 pg VEGF-A per mL and 142.92 pg VEGF-A per mL
same,Result (pg VEGF-A per mL),"[1]; 10 μg/well, 12 Hr",29.66 pg VEGF-A per mL and 31.2 pg VEGF-A per mL and 24.52 pg VEGF-A per mL and 24.31 pg VEGF-A per mL and 27.98 pg VEGF-A per mL and 29.18 pg VEGF-A per mL
same,% Negative Control,"[1]; 10 μg/well, 24 Hr",1142%
same,pg VEGF-A per mL,"[1]; 10 μg/well, 24 Hr",28 pg VEGF-A per mL and 34.8 pg VEGF-A per mL and 42.4 pg VEGF-A per mL
same,Mean (pg VEGF-A per mL),"[1]; 10 μg/well, 24 Hr",350.7 pg VEGF-A per mL
same,Mean (pg VEGF-A per μg protein),"[1]; 10 μg/well, 24 Hr",5.290 pg VEGF-A per μg protein
same,% Control,"[1]; 10 μg/well, 24 Hr",119.8%
same,Mean Result (pg VEGF-A per mL),"[1]; 10 μg/well, 24 Hr",55.95 pg VEGF-A per mL and 69.61 pg VEGF-A per mL and 84.84 pg VEGF-A per mL
same,pg VEGF-A per μg protein,"[1]; 10 μg/well, 24 Hr",4.4 pg VEGF-A per μg protein and 5.4 pg VEGF-A per μg protein and 6.1 pg VEGF-A per μg protein
same,Adj. Result (pg VEGF-A per mL),"[1]; 10 μg/well, 24 Hr",279.74 pg VEGF-A per mL and 348.06 pg VEGF-A per mL and 424.20 pg VEGF-A per mL
same,Result (pg VEGF-A per mL),"[1]; 10 μg/well, 24 Hr",57.85 pg VEGF-A per mL and 54.04 pg VEGF-A per mL and 72.69 pg VEGF-A per mL and 66.53 pg VEGF-A per mL and 84.97 pg VEGF-A per mL and 84.71 pg VEGF-A per mL
same,% Negative Control,"[1]; 10 μg/well, 48 Hr",99.3%
same,pg VEGF-A per mL,"[1]; 10 μg/well, 48 Hr",83.7 pg VEGF-A per mL and 95.6 pg VEGF-A per mL and 98.3 pg VEGF-A per mL
same,Mean (pg VEGF-A per mL),"[1]; 10 μg/well, 48 Hr",925.1 pg VEGF-A per mL
same,Mean (pg VEGF-A per μg protein),"[1]; 10 μg/well, 48 Hr",13.696 pg VEGF-A per μg protein
same,% Control,"[1]; 10 μg/well, 48 Hr",104.6%
same,Mean Result (pg VEGF-A per mL),"[1]; 10 μg/well, 48 Hr",191.17 pg VEGF-A per mL and 196.56 pg VEGF-A per mL and 167.34 pg VEGF-A per mL
same,pg VEGF-A per μg protein,"[1]; 10 μg/well, 48 Hr",11.8 pg VEGF-A per μg protein and 14 pg VEGF-A per μg protein and 15.3 pg VEGF-A per μg protein
same,Adj. Result (pg VEGF-A per mL),"[1]; 10 μg/well, 48 Hr",955.85 pg VEGF-A per mL and 982.81 pg VEGF-A per mL and 836.69 pg VEGF-A per mL
same,Result (pg VEGF-A per mL),"[1]; 10 μg/well, 48 Hr",194.18 pg VEGF-A per mL and 188.16 pg VEGF-A per mL and 194.77 pg VEGF-A per mL and 198.36 pg VEGF-A per mL and 158.85 pg VEGF-A per mL and 175.83 pg VEGF-A per mL
same,VEGF-A as % of control,"[1]; 100 μg/mL, 12 hour treatment",20.1%
same,VEGF-A as % of control,"[1]; 100 μg/mL, 24 hour treatment",7.5%
same,pg VEGF-A/m protein as % of the negative control,"[1]; 100 μg/mL, 48 hours",11%
same,% Negative Control,"[1]; 100 μg/well, 12 Hr",18.5%
same,pg VEGF-A per mL,"[1]; 100 μg/well, 12 Hr",2.4 pg VEGF-A per mL and 2.3 pg VEGF-A per mL
same,Mean (pg VEGF-A per mL),"[1]; 100 μg/well, 12 Hr",23.8 pg VEGF-A per mL
same,Mean (pg VEGF-A per μg protein),"[1]; 100 μg/well, 12 Hr",0.4 pg VEGF-A per μg protein
same,Mean Result (pg VEGF-A per mL),"[1]; 100 μg/well, 12 Hr",4.86 pg VEGF-A per mL and 4.58 pg VEGF-A per mL
same,pg VEGF-A per μg protein,"[1]; 100 μg/well, 12 Hr",0.4 pg VEGF-A per μg protein
same,Adj. Result (pg VEGF-A per mL),"[1]; 100 μg/well, 12 Hr",24.27 pg VEGF-A per mL and 22.91 pg VEGF-A per mL
same,Result (pg VEGF-A per mL),"[1]; 100 μg/well, 12 Hr",5.09 pg VEGF-A per mL and 4.62 pg VEGF-A per mL and 5.3 pg VEGF-A per mL and 4.41 pg VEGF-A per mL and 4.83 pg VEGF-A per mL and 4.33 pg VEGF-A per mL
same,% Negative Control,"[1]; 100 μg/well, 24 Hr",6.3%
same,Mean (pg VEGF-A per mL),"[1]; 100 μg/well, 24 Hr",19.2 pg VEGF-A per mL
same,Mean (pg VEGF-A per μg protein),"[1]; 100 μg/well, 24 Hr",0.329 pg VEGF-A per μg protein
same,% Control,"[1]; 100 μg/well, 24 Hr",7.5%
same,pg VEGF-A per μg protein,"[1]; 100 μg/well, 24 Hr",0.5 pg VEGF-A per μg protein and 0.3 pg VEGF-A per μg protein
same,% Negative Control,"[1]; 100 μg/well, 48 Hr",3.7%
same,pg VEGF-A per mL,"[1]; 100 μg/well, 48 Hr",3.9 pg VEGF-A per mL
same,Mean (pg VEGF-A per mL),"[1]; 100 μg/well, 48 Hr",35.6 pg VEGF-A per mL
same,Mean (pg VEGF-A per μg protein),"[1]; 100 μg/well, 48 Hr",1.458 pg VEGF-A per μg protein
same,% Control,"[1]; 100 μg/well, 48 Hr",11.1%
same,Mean Result (pg VEGF-A per mL),"[1]; 100 μg/well, 48 Hr",5.85 pg VEGF-A per mL and 7.78 pg VEGF-A per mL and 7.76 pg VEGF-A per mL
same,pg VEGF-A per μg protein,"[1]; 100 μg/well, 48 Hr",1.4 pg VEGF-A per μg protein and 1.6 pg VEGF-A per μg protein
same,Adj. Result (pg VEGF-A per mL),"[1]; 100 μg/well, 48 Hr",29.23 pg VEGF-A per mL and 38.88 pg VEGF-A per mL and 38.78 pg VEGF-A per mL
same,Result (pg VEGF-A per mL),"[1]; 100 μg/well, 48 Hr",8.03 pg VEGF-A per mL and 5.86 pg VEGF-A per mL and 5.83 pg VEGF-A per mL and 7.83 pg VEGF-A per mL and 7.72 pg VEGF-A per mL and 7.49 pg VEGF-A per mL
same,OD450 Values,"[2]; His-probe (H-3), Experiment 3, stored 1:100 dilution of sdAb",0.360
same,OD450 Values,"[2]; Rabbit anti-Llama Secondary Antibody, Experiment 2, sdAb coated at 1 μg/mL",1.313
same,OD450 Values,"[2]; Rabbit anti-Llama Secondary Antibody, Experiment 3, stored 1:100 dilution of sdAb",0.363
